Active and inactive are the calls of the source. How the calls were made is not given here.
Tested on: CCRIS mutagenicity, Ames/micronucleus/aberration tests
Test: CCRIS mutagenicity studies
[1] = Test System: AMES SALMONELLA TYPHIMURIUM, Strain/Indicator: TA98, Metabolic Activation: NONE, Method: PREINCUBATION
[2] = Test System: AMES SALMONELLA TYPHIMURIUM, Strain/Indicator: TA100, Metabolic Activation: NONE, Method: PREINCUBATION
[3] = Test System: AMES SALMONELLA TYPHIMURIUM, Strain/Indicator: TA1535, Metabolic Activation: NONE, Method: PREINCUBATION
[4] = Test System: AMES SALMONELLA TYPHIMURIUM, Strain/Indicator: TA97, Metabolic Activation: NONE, Method: STANDARD PLATE
[5] = Test System: AMES SALMONELLA TYPHIMURIUM, Strain/Indicator: TA98, Metabolic Activation: NONE, Method: STANDARD PLATE
[6] = Test System: AMES SALMONELLA TYPHIMURIUM, Strain/Indicator: TA100, Metabolic Activation: NONE, Method: STANDARD PLATE

Oc1ccc(Cl)cc1Sc1cc(Cl)ccc1O
mutagenic call (Test System: AMES SALMONELLA TYPHIMURIUM, Strain/Indicator: TA97, Metabolic Activation: HAMSTER, LIVER, S-9, AROCLOR 1254 (10 OR 30%), Method: PREINCUBATION): inactive; negative
mutagenic call (Test System: AMES SALMONELLA TYPHIMURIUM, Strain/Indicator: TA97, Metabolic Activation: NONE, Method: PREINCUBATION): inactive; negative
mutagenic call (Test System: AMES SALMONELLA TYPHIMURIUM, Strain/Indicator: TA97, Metabolic Activation: RAT, LIVER, S-9, AROCLOR 1254 (10 OR 30%), Method: PREINCUBATION): inactive; negative
mutagenic call (Test System: AMES SALMONELLA TYPHIMURIUM, Strain/Indicator: TA98, Metabolic Activation: HAMSTER, LIVER, S-9, AROCLOR 1254 (10 OR 30%), Method: PREINCUBATION): inactive; negative
mutagenic call [1]: inactive; negative
mutagenic call (Test System: AMES SALMONELLA TYPHIMURIUM, Strain/Indicator: TA98, Metabolic Activation: RAT, LIVER, S-9, AROCLOR 1254 (10 OR 30%), Method: PREINCUBATION): inactive; negative
mutagenic call (Test System: AMES SALMONELLA TYPHIMURIUM, Strain/Indicator: TA100, Metabolic Activation: HAMSTER, LIVER, S-9, AROCLOR 1254 (10 OR 30%), Method: PREINCUBATION): inactive; negative
mutagenic call [2]: inactive; negative
mutagenic call (Test System: AMES SALMONELLA TYPHIMURIUM, Strain/Indicator: TA100, Metabolic Activation: RAT, LIVER, S-9, AROCLOR 1254 (10 OR 30%), Method: PREINCUBATION): inactive; negative
mutagenic call (Test System: AMES SALMONELLA TYPHIMURIUM, Strain/Indicator: TA1535, Metabolic Activation: HAMSTER, LIVER, S-9, AROCLOR 1254 (10 OR 30%), Method: PREINCUBATION): inactive; negative
mutagenic call [3]: inactive; negative
mutagenic call (Test System: AMES SALMONELLA TYPHIMURIUM, Strain/Indicator: TA1535, Metabolic Activation: RAT, LIVER, S-9, AROCLOR 1254 (10 OR 30%), Method: PREINCUBATION): inactive; negative

S=C1SSC2=NCCN12
mutagenic call [4]: inactive; negative
mutagenic call (Test System: AMES SALMONELLA TYPHIMURIUM, Strain/Indicator: TA97, Metabolic Activation: RAT, LIVER, S-9, AROCLOR 1254, Method: STANDARD PLATE): inactive; negative
mutagenic call [5]: inactive; negative
mutagenic call (Test System: AMES SALMONELLA TYPHIMURIUM, Strain/Indicator: TA98, Metabolic Activation: RAT, LIVER, S-9, AROCLOR 1254, Method: STANDARD PLATE): inactive; negative
mutagenic call [6]: inactive; negative

O=C1C=CC(=O)C=C1
mutagenic call [4]: inactive; negative
mutagenic call (Test System: AMES SALMONELLA TYPHIMURIUM, Strain/Indicator: TA97, Metabolic Activation: RAT, LIVER, S-9, AROCLOR 1254, Method: PREINCUBATION): inactive; negative
mutagenic call (Test System: AMES SALMONELLA TYPHIMURIUM, Strain/Indicator: TA97, Metabolic Activation: RAT, LIVER, S-9, PCB, Method: STANDARD PLATE): inactive; negative
mutagenic call (Test System: AMES SALMONELLA TYPHIMURIUM, Strain/Indicator: TA97, Metabolic Activation: RAT, LIVER, S-9, PHENOBARBITAL, Method: PREINCUBATION): inactive; negative
mutagenic call [5]: inactive; negative
mutagenic call (Test System: AMES SALMONELLA TYPHIMURIUM, Strain/Indicator: TA98, Metabolic Activation: RAT, LIVER, S-9, AROCLOR 1254, Method: PREINCUBATION): inactive; negative
mutagenic call (Test System: AMES SALMONELLA TYPHIMURIUM, Strain/Indicator: TA98, Metabolic Activation: RAT, LIVER, S-9, PCB, Method: STANDARD PLATE): inactive; negative
mutagenic call (Test System: AMES SALMONELLA TYPHIMURIUM, Strain/Indicator: TA98, Metabolic Activation: RAT, LIVER, S-9, PHENOBARBITAL AND 5,6-BENZOFLAVONE, Method: PREINCUBATION): inactive; negative
mutagenic call (Test System: AMES SALMONELLA TYPHIMURIUM, Strain/Indicator: TA98, Metabolic Activation: RAT, LIVER, S-9, PHENOBARBITAL, Method: PREINCUBATION): active; positive
mutagenic call (Test System: AMES SALMONELLA TYPHIMURIUM, Strain/Indicator: TA100, Metabolic Activation: NONE, Method: FLUCTUATION TEST): inactive; negative
mutagenic call [2]: inactive; negative
mutagenic call [6]: inactive; negative
mutagenic call (Test System: AMES SALMONELLA TYPHIMURIUM, Strain/Indicator: TA100, Metabolic Activation: RAT, LIVER, S-9, AROCLOR 1254, Method: PREINCUBATION): inactive; negative
mutagenic call (Test System: AMES SALMONELLA TYPHIMURIUM, Strain/Indicator: TA100, Metabolic Activation: RAT, LIVER, S-9, PCB, Method: FLUCTUATION TEST): active; positive
mutagenic call (Test System: AMES SALMONELLA TYPHIMURIUM, Strain/Indicator: TA100, Metabolic Activation: RAT, LIVER, S-9, PCB, Method: STANDARD PLATE): inactive; negative
mutagenic call (Test System: AMES SALMONELLA TYPHIMURIUM, Strain/Indicator: TA100, Metabolic Activation: RAT, LIVER, S-9, PHENOBARBITAL, Method: PREINCUBATION): active; positive
mutagenic call (Test System: AMES SALMONELLA TYPHIMURIUM, Strain/Indicator: TA102, Metabolic Activation: NONE, Method: PREINCUBATION): inactive; negative
mutagenic call (Test System: AMES SALMONELLA TYPHIMURIUM, Strain/Indicator: TA102, Metabolic Activation: RAT, LIVER, S-9, AROCLOR 1254, Method: PREINCUBATION): inactive; negative
mutagenic call (Test System: AMES SALMONELLA TYPHIMURIUM, Strain/Indicator: TA102, Metabolic Activation: RAT, LIVER, S-9, PHENOBARBITAL AND 5,6-BENZOFLAVONE, Method: PREINCUBATION): inactive; negative
mutagenic call (Test System: AMES SALMONELLA TYPHIMURIUM, Strain/Indicator: TA104, Metabolic Activation: RAT, LIVER, S-9, AROCLOR 1254, Method: PREINCUBATION): inactive; negative
mutagenic call (Test System: AMES SALMONELLA TYPHIMURIUM, Strain/Indicator: TA104, Metabolic Activation: RAT, LIVER, S-9, PHENOBARBITAL AND 5,6-BENZOFLAVONE, Method: PREINCUBATION): inactive; negative
mutagenic call [3]: inactive; negative
mutagenic call (Test System: AMES SALMONELLA TYPHIMURIUM, Strain/Indicator: TA1535, Metabolic Activation: RAT, LIVER, S-9, AROCLOR 1254, Method: PREINCUBATION): inactive; negative
mutagenic call (Test System: AMES SALMONELLA TYPHIMURIUM, Strain/Indicator: TA2637, Metabolic Activation: NONE, Method: PREINCUBATION): inactive; negative
mutagenic call (Test System: AMES SALMONELLA TYPHIMURIUM, Strain/Indicator: TA2637, Metabolic Activation: RAT, LIVER, S-9, PHENOBARBITAL AND 5,6-BENZOFLAVONE, Method: PREINCUBATION): inactive; negative
mutagenic call (Test System: CHINESE HAMSTER V-79, Strain/Indicator: V-79/6-THIOGUANINE, Metabolic Activation: NONE): active; positive
mutagenic call (Test System: MOUSE LYMPHOMA, Strain/Indicator: L5178Y (TK+/TK-), Metabolic Activation: NONE, Method: SUSPENSION/PLATE): active; positive

Cc1cnc2ccccc2c1
mutagenic call [1]: inactive; negative
mutagenic call (Test System: AMES SALMONELLA TYPHIMURIUM, Strain/Indicator: TA98, Metabolic Activation: RAT, LIVER, S-9, Method: PREINCUBATION): inactive; negative
mutagenic call [2]: inactive; negative
mutagenic call (Test System: AMES SALMONELLA TYPHIMURIUM, Strain/Indicator: TA100, Metabolic Activation: RAT, LIVER, S-9, PHENOBARBITAL AND 5,6-BENZOFLAVONE, Method: PREINCUBATION): active; positive
mutagenic call (Test System: AMES SALMONELLA TYPHIMURIUM, Strain/Indicator: TA100, Metabolic Activation: RAT, LIVER, S-9, PHENOBARBITAL AND 5,6-NAPHTHOFLAVONE, Method: PREINCUBATION): active; positive

CN(C)CCNC(=O)c1cccc2c(=O)c3ccccc3oc12
mutagenic call (Test System: AMES SALMONELLA TYPHIMURIUM, Strain/Indicator: TA1537, Metabolic Activation: NONE, Method: STANDARD PLATE): active; positive

CCNc1cc2oc(=O)cc(C)c2cc1C
mutagenic call (Test System: AMES SALMONELLA TYPHIMURIUM, Strain/Indicator: TA1538, Metabolic Activation: NONE, Method: STANDARD PLATE): inactive; negative
mutagenic call (Test System: AMES SALMONELLA TYPHIMURIUM, Strain/Indicator: TA1538, Metabolic Activation: RAT, LIVER, S-9, AROCLOR 1254, Method: STANDARD PLATE): inactive; negative

Reference: PubChem BioAssay AID1259407 (Chemical Carcinogenesis Research Information System (CCRIS), 2018)
